Patent publication US20260217691A1, “FOXM1 INHIBITORS AND THEIR USE IN TREATING CANCERS” (THE BOARD OF TRUSTEES OF THE UNIVERSITY OF ILLINOIS, priority 2022, published 2026)

Key:
TAMR cells = assay type: cell-based
Protocol: (§1) FIG. 17. […] (A) Prostate cancer (22RV1 and LNCaP) cells were treated with indicated concentrations of paclitaxel alone or in combination with STL001 for 24 hrs. (B) Tamoxifen resistance MCF-7 breast cancer cells (TAM-R) were treated with indicated concentrations of Tamoxifen alone or in combination with STL001 for 24 hrs. In all cases, total protein samples were obtained from cells immediately after treatment and analyzed for FOXM1, cleaved caspase-3 levels via immunoblotting, β-actin was used as internal loading control (n=3). (C) Percent (%) dead cells in TAM-R cells treated with indicated concentrations of Tamoxifen alone or in combination with STL001 for 24 hrs. […] (F) HCC 143 cells with stable shRNA-mediated FOXM1 knockdown (KD) were treated with doxorubicin alone or in combination with STL001 for 24 hrs and compared to parental cells under the same treatment conditions. In all cases, total protein samples were obtained from cells immediately after treatment and analyzed for FOXM1, cleaved caspase-3 levels via immunoblotting, β-actin was used as internal loading control (n=3).

22RV1, LNCaP cells = tested on: 22RV1, LNCaP cells
Protocol: as §1

[1] = tested on: KG-1, HL-60, K562, THP-1 cells; assay type: cell-based
OVCAR-8, ES-2 cells = experiment: Chemosensitization (caspase-3 cleavage) of ovarian cancer cells to doxorubicin; assay type: cell-based, human
Protocol: FIG. 16. […] (A) Ovarian cancer (OVCAR-8 and ES-2) cells were treated with indicated concentrations of Doxorubicin (Doxo) alone or in combination with STL001 for 24 hrs. […] (C) colon cancer (HCT-116 and FET) cells were treated with indicated concentrations of 5′FU alone or in combination with STL001 for 24 hrs.

HCC-1143 cells = conditions: HCC-1143 FOXM1-KD, doxorubicin
Protocol: as §1
Stable FOXM1-expression knockdown in cancer cell: Cells were seeded on commercially available 12-well tissue culture plates to achieve ~40% confluency. […] Transduced cells were selected by their cultivation with puromycin (1.0 μg/mL) for 10 days and then maintained without puromycin as described above.

[2] = KG-1, HL-60 and K562 cells, 24 h

O=C(Oc1cccc(-c2ccn(-c3nc(Nc4ccccc4)nc(N4CCOCC4)n3)n2)c1)c1ccco1 [STL001]
cytotoxic effects (caspase-3 cleavage, cell viability) in combination with tamoxifen (TAMR cells): drastically enhances the cytotoxic effects of tamoxifen therapy
cytotoxic effects (caspase-3 cleavage) in combination with taxol (22RV1, LNCaP cells): enhanced the cytotoxic effects of taxol-therapy
cytotoxic action alone ([1]; AML cell lines, single agent): did not exert prominent cytotoxic action on its own
apoptosis (caspase-3 cleavage) in combination with cytarabine [1, 2]: potent induction of apoptosis
apoptosis (caspase-3 cleavage) in combination with venetoclax [1, 2]: potent induction of apoptosis
treatment sensitization effect in cells with stable knockdown of FOXM1 ([1]; KG-1 shFOXM1 cells, venetoclax): absent
cytotoxic effects as a single agent (OVCAR-8, ES-2 cells): did not exert significant cytotoxic effects
apoptotic cell death (caspase-3 cleavage) in combination with doxorubicin (OVCAR-8, ES-2 cells; 24 hrs): potent induction of apoptotic cell death
sensitization effect in FOXM1 deficient cells (HCC-1143 cells): absent
